Measurements published in US20080044844A1 (priority 2004, published 2008).
Like-named read-outs stand apart in the source and are kept apart here.

How the values were obtained:
[1] = system: GrpE promoter; assay type: cell-based, E. coli
[2] = system: Fiu promoter; assay type: cell-based, E. coli
[3] = system: lacZ promoter; assay type: cell-based, E. coli
[4] = system: GrpE promoter; assay type: cell-based, E. coli; remark: listed apart in the source
[5] = system: E. coli luxCDABE promoter fusion library; assay type: cell-based
[6] = system: Fiu promoter; assay type: cell-based, E. coli; remark: listed apart in the source
[7] = system: MipA promoter; assay type: cell-based, E. coli
[8] = system: (AP-1-STRE)*2; assay type: cell-based, Saccharomyces cerevisiae
[9] = rat, in vivo, po; cited from earlier work
[10] = system: STRE; assay type: cell-based, Saccharomyces cerevisiae
[11] = system: LacAYZ promoter; assay type: cell-based, E. coli
[12] = system: MipA promoter; assay type: cell-based, E. coli; remark: listed apart in the source
[13] = system: otsAB promoter; assay type: cell-based, E. coli
[14] = system: yciD promoter; assay type: cell-based, E. coli
[15] = system: nhoA promoter; assay type: cell-based, E. coli

Work on Oc1cc(Cl)c(Cl)cc1Cl [2,4,5-Trichlorophenol] yielded a Cmax [1] of 31 mg/L, an EC200 [1] of 1.0 mg/L and an RRmax [1] of 22.1. The t200 [1] was 21 min, the “tmax (first value, time to reach RRmax)” value [1] was 90/90 min and the “tmax (second value, time to reach ΔLmax)” value [1] was 90/90 min. For the same compound, the ΔLmax [1] was 54,432 RLU, the Cmax [2] was 31 mg/L and the EC200 [2] was 1.2 mg/L. For the same compound, the RRmax [2] was 11.7, the t200 [2] was 39 min and the “tmax (first value, time to reach RRmax)” value [2] was 30/120 min. For the same compound, the “tmax (second value, time to reach ΔLmax)” value [2] was 30/120 min, the ΔLmax [2] was 33,697 RLU and the Cmax [3] was 31 mg/L. For the same compound, the EC200 [3] was 0.8 mg/L, the RRmax [3] was 16.1 and the t200 [3] was 95 min. The “tmax (first value, time to reach RRmax)” value [3] was 120/120 min, the “tmax (second value, time to reach ΔLmax)” value [3] was 120/120 min and the ΔLmax [3] was 74,832 RLU.
Oc1c(Cl)cccc1Cl [2,6-Dichlorophenol] gave a Cmax [1] of 31 mg/L, an EC200 [1] of 1.2 mg/L and an RRmax [1] of 19.5. The t200 [1] was 29 min, the “tmax (first value, time to reach RRmax)” value [1] was 90/90 min and the “tmax (second value, time to reach ΔLmax)” value [1] was 90/90 min. For the same compound, the ΔLmax [1] was 47,877 RLU, the Cmax [2] was 125 mg/L and the EC200 [2] was 16.0 mg/L. The RRmax [2] was 4.4, the t200 [2] was 31 min and the “tmax (first value, time to reach RRmax)” value [2] was 30/120 min. The “tmax (second value, time to reach ΔLmax)” value [2] was 30/120 min and the ΔLmax [2] was 25,553 RLU.
With Oc1ccccc1Cl [2-Chlorophenol] the Cmax [1] was 250 mg/L, the EC200 [1] was 2.8 mg/L and the RRmax [1] was 18.7. For the same compound, the t200 [1] was 32 min, the “tmax (first value, time to reach RRmax)” value [1] was 90/90 min and the “tmax (second value, time to reach ΔLmax)” value [1] was 90/90 min. The ΔLmax [1] was 33,345 RLU, the Cmax [2] was 500 mg/L and the EC200 [2] was 3.4 mg/L. For the same compound, the RRmax [2] was 5.8, the t200 [2] was 80 min and the “tmax (first value, time to reach RRmax)” value [2] was 90/120 min. For the same compound, the “tmax (second value, time to reach ΔLmax)” value [2] was 90/120 min and the ΔLmax [2] was 11,971 RLU.
For COc1cc2c(c(OC)c1OC)-c1ccc(OC)c(=O)cc1[C@@H](NC(C)=O)CC2 [Colchicine], the Cmax [2] was 45 mg/L, the EC200 [2] was 14.3 mg/L and the RRmax [2] was 4.0. For the same compound, the t200 [2] was 85 min, the “tmax (first value, time to reach RRmax)” value [2] was 120/120 min and the “tmax (second value, time to reach ΔLmax)” value [2] was 120/120 min. For the same compound, the ΔLmax [2] was 1,924 RLU.
In the case of COP(=O)(OC)OC=C(Cl)Cl [DDVP, Dichlorvos], the Cmax [1] is reported as 125 mg/L, the EC200 [1] is reported as 32.5 mg/L and the t200 [1] is reported as 41 min. The “tmax (first value, time to reach RRmax)” value [1] was 132/132 min, the “tmax (second value, time to reach ΔLmax)” value [1] was 132/132 min and the ΔLmax [1] was 5,290 RLU. The Cmax [4] was 125 mg/L, the “share of library promoters with 0 < RRmax < 2” value (shortened to “share … with 0 < RRmax < 2”) [5] was 91.7% and the “share of library promoters with 2 < RRmax < 3” value (from here on “share … with 2 < RRmax < 3”) [5] was 5.7%. The “share of library promoters with 3 < RRmax < 5” value (“share … with 3 < RRmax < 5” for short) [5] was 2.0%, the “share of library promoters with 5 < RRmax < 10” value (“share … with 5 < RRmax < 10” for short) [5] was 0.4% and the Cmax [6] was 500 mg/L. The RRmax [6] was 5.
With CCOP(=S)(OCC)Oc1ccc([N+](=O)[O-])cc1 [Ethyl Parathion] the Cmax [7] was 500 mg/L, the EC200 [7] was 79.0 mg/L and the t200 [7] was 60 min. The “tmax (first value, time to reach RRmax)” value [7] was 87/110 min, the “tmax (second value, time to reach ΔLmax)” value [7] was 87/110 min and the ΔLmax [7] was 196,600 RLU. For the same compound, the fold higher response [8] was 4-5 fold, the “time within which a response can be seen” value [8] was 5 to 10 min and the LD50 [9] was 2 mg/kg. The fold higher response [10] was 4-5 fold, the “time within which a response can be seen” value [10] was 5 to 10 min and the “share … with 0 < RRmax < 2” value [5] was 89.6%. The “share … with 2 < RRmax < 3” value [5] was 6.3%, the “share … with 3 < RRmax < 5” value [5] was 2.1% and the “share … with 5 < RRmax < 10” value [5] was 1.7%. The Cmax [11] was 500 mg/L, the RRmax [11] was 8 and the Cmax [3] was 125 mg/L. For the same compound, the EC200 [3] was 13.0 mg/L, the RRmax [3] was 4.7 and the t200 [3] was 120 min. For the same compound, the “tmax (first value, time to reach RRmax)” value [3] was 132/132 min, the “tmax (second value, time to reach ΔLmax)” value [3] was 132/132 min and the ΔLmax [3] was 47,776 RLU. For the same compound, the Cmax [12] was 500 mg/L.
In the case of CNC(=S)[S-].[Na+] [Metham Sodium], the Cmax [7] is reported as 180 mg/L, the EC200 [7] is reported as 18.0 mg/L and the RRmax [7] is reported as 5.9. For the same compound, the t200 [7] was 100 min, the “tmax (first value, time to reach RRmax)” value [7] was 120/120 min and the “tmax (second value, time to reach ΔLmax)” value [7] was 120/120 min. For the same compound, the ΔLmax [7] was 27,745 RLU, the Cmax [3] was 180 mg/L and the EC200 [3] was 20.0 mg/L. The RRmax [3] was 6.5, the t200 [3] was 90 min and the “tmax (first value, time to reach RRmax)” value [3] was 120/120 min. The “tmax (second value, time to reach ΔLmax)” value [3] was 120/120 min and the ΔLmax [3] was 30,468 RLU.
For CNC(=O)ON=C(C)SC [Methomyl], the LD50 [9] is listed as 17 mg/kg, the “response of the library promoters to the toxicant (in words)” value (from here on “response of the library promoters”) [5] is listed as “very poor responses” and the “share … with 0 < RRmax < 2” value [5] is listed as 90.1%. For the same compound, the “share … with 2 < RRmax < 3” value [5] was 7.1%, the “share … with 3 < RRmax < 5” value [5] was 2.0% and the “share … with 5 < RRmax < 10” value [5] was 0.7%. The “share of library promoters with 10 < RRmax” value [5] was 0.1%, the Cmax [13] was 2000 mg/L and the RRmax [13] was 3. It also gave a Cmax [14] of 2000 mg/L and an RRmax [14] of 2.
For C[n+]1ccc(-c2cc[n+](C)cc2)cc1 [Paraquat], the EC200 [15] was 0.43 mg/L, the t200 [15] was 21 min and the “tmax (first value, time to reach RRmax)” value [15] was 96/110 min. The “tmax (second value, time to reach ΔLmax)” value [15] was 96/110 min, the ΔLmax [15] was 146,342 RLU and the LD50 [9] was 150 mg/kg. The “response of the library promoters” value [5] was “strongest inducer”, the “share … with 0 < RRmax < 2” value [5] was 71.1% and the “share … with 2 < RRmax < 3” value [5] was 13.7%. For the same compound, the “share … with 3 < RRmax < 5” value [5] was 7.5%, the “share … with 5 < RRmax < 10” value [5] was 3.7% and the “share of library promoters with 10 < RRmax” value [5] was 4%. For the same compound, the Cmax [11] was 500 mg/L, the RRmax [11] was 28 and the Cmax [2] was 250 mg/L. It also gave an EC200 [2] of 9.8 mg/L, an RRmax [2] of 16.9 and a t200 [2] of 42 min. The “tmax (first value, time to reach RRmax)” value [2] was 120/60 min, the “tmax (second value, time to reach ΔLmax)” value [2] was 120/60 min and the ΔLmax [2] was 29,591 RLU. It also gave a Cmax [3] of 32.5 mg/L, an EC200 [3] of 9.0 mg/L and an RRmax [3] of 13.0. The t200 [3] was 85 min, the “tmax (first value, time to reach RRmax)” value [3] was 123/132 min and the “tmax (second value, time to reach ΔLmax)” value [3] was 123/132 min. The ΔLmax [3] was 253,421 RLU.
COC(=O)C=C(C)OP(=O)(OC)OC [Phosdrin] gave a Cmax [3] of 180 mg/L, an EC200 [3] of 38.3 mg/L and an RRmax [3] of 3.7. For the same compound, the t200 [3] was 110 min, the “tmax (first value, time to reach RRmax)” value [3] was 120/120 min and the “tmax (second value, time to reach ΔLmax)” value [3] was 120/120 min. The ΔLmax [3] was 12,900 RLU.
In the case of Botulinum Toxin A, the “response of the library promoters” value [5] is reported as “did not produce any response” and the “share … with 0 < RRmax < 2” value [5] is reported as 100%.
